These compounds were tested against T1, human TGR5 (Homo sapiens, UniProt Q8TDU6) (assay: Cell-based TGR5 assay (cAMP generation, HTRF)). Conditions: HEK293 cells stably transfected with human TGR5; cAMP by HTRF; 30 minutes at 37° C.; read-out: pEC50 Human TGR5 (converted).
T1 construct: expressed in transfected cells; host or cells: HEK293
T1 sequence (Q8TDU6 1-330): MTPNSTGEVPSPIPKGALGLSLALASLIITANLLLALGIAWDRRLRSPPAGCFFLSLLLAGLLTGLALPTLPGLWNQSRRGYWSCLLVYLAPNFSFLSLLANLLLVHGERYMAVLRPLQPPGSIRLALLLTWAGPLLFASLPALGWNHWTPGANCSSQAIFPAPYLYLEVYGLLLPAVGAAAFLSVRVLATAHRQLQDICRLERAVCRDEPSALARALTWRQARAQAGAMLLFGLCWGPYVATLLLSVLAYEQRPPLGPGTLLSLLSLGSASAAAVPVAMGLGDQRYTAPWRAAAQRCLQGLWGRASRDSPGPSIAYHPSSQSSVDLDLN
How it was run: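 First, compounds in 3-fold serial dilution were placed in HBSS with 10 mM HEPES pH 7.4 and 0.5 mM IBMX. Next, human TGR5-expressing HEK293 cells were added and incubated 30 min at 37° C. Finally, cAMP was detected by HTRF and pEC50 derived by logistic fitting.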

O=C([C@@H](O)[C@@H](O)[C@H](O)[C@@H](O)CO)N(CCCO)CCCCc1cc(Cl)c(COC2(c3cnccc3-c3ccccc3OC3CC3)CC2)cc1Cl [Compound I-217, (2S,3S,4R,5S)-N-{4-[2,5-dichloro-4-({1-[4-(2-cyclopropoxyphenyl)pyridin-3-yl]cyclopropoxy}methyl)phenyl]butyl}-2,3,4,5,6-pentahydroxy-N-(3-hydroxypropyl)hexanamide] and CN(CCCCSc1ccc(Cl)c(COC2(c3cnccc3-c3ccccc3OC3CC3)CC2)c1)C(=O)[C@@H](O)[C@@H](O)[C@H](O)[C@@H](O)CO [Compound I-510, (2S,3S,4R,5S)-N-(4-{[4-chloro-3-({11-[4-(2-cyclopropoxyphenyl)pyridin-3-yl]cyclopropoxy}methyl)phenyl]sulfanyl}butyl)-2,3,4,5,6-pentahydroxy-N-methylhexanamide] cannot be ordered by EC50: < 100 nM for the first, < 100 nM for the second.

First: CCOC(=O)NCCCN(CCCCSc1ccc(Cl)c(CNC2(c3cnccc3-c3ccccc3OC3CC3)CC2)c1)C(=O)[C@@H](O)[C@@H](O)[C@H](O)[C@@H](O)CO [Compound I-574, ethyl N-{3-[(2S,3S,4R,5S)-N-[4-({4-chloro-3-[({1-[4-(2-cyclopropoxyphenyl)pyridin-3-yl]cyclopropyl}amino)methyl]phenyl}sulfanyl)butyl]-2,3,4,5,6-pentahydroxyhexanamido]propyl}carbamate]
Second: Cc1ccc(SCCCN(CCOCCO)C(=O)[C@@H](O)[C@@H](O)[C@H](O)[C@@H](O)CO)cc1CNC1(c2cnccc2-c2ccccc2OC2CC2)CC1 [Compound I-545, (2S,3S,4R,5S)-N-[3-({3-[({1-[4-(2-cyclopropoxyphenyl)pyridin-3-yl]cyclopropyl}amino)methyl]-4-methylphenyl}sulfanyl)propyl]-2,3,4,5,6-pentahydroxy-N-[2-(2-hydroxyethoxy)ethyl]hexanamide]
The EC50 of the first is lower: < 100 nM for the first, 126 to 1000 nM for the second.

Cc1cc(COC2(c3cnccc3-c3ccccc3OC3COC3)CC2)c(Cl)cc1CCCCNC(=O)NC[C@H](O)[C@@H](O)[C@H](O)[C@H](O)CO (stereo in doubt) [Compound I-190, 1-(4-{5-chloro-2-methyl-4-[(1-{4-[2-(oxetan-3-yloxy)phenyl]pyridin-3-yl}cyclopropoxy)methyl]phenyl}butyl)-3-[(2S,3R,4R,5R)-2,3,4,5,6-pentahydroxyhexyl]urea] and Cc1cc(COC2(c3cnccc3-c3ccccc3OC3CC3)CC2)c(Cl)cc1CCCCNC(=O)N1CCN(C[C@H](O)[C@@H](O)[C@@H](O)[C@H](O)CO)CC1 [Compound I-114, N-{4-[5-chloro-4-({1-[4-(2-cyclopropoxyphenyl)pyridin-3-yl]cyclopropoxy}methyl)-2-methylphenyl]butyl}-4-[(2S,3R,4S,5R)-2,3,4,5,6-pentahydroxyhexyl]piperazine-1-carboxamide] cannot be ordered by EC50: < 100 nM for the first, < 100 nM for the second.

Compared with CC(CCCN(C(=O)[C@@H](O)[C@@H](O)[C@H](O)[C@@H](O)CO)C1CCOCC1)c1ccc(Cl)c(CNC2(c3cnccc3-c3ccccc3OC3CC3)CC2)c1 (stereo partly drawn) [Compound I-285, (2S,3S,4R,5S)-N-(4-{4-chloro-3-[({1-[4-(2-cyclopropoxyphenyl)pyridin-3-yl]cyclopropyl}amino)methyl]phenyl}pentyl)-2,3,4,5,6-pentahydroxy-N-(oxan-4-yl)hexanamide], C[C@H](CCCC(=O)NC[C@H](O)[C@@H](O)[C@H](O)[C@H](O)CO)c1ccc(Cl)c(CNC2(c3cnccc3-c3ccccc3OC3CC3)CC2)c1 (single isomer, unassigned) [Compound I-315] is lower in EC50: 126 to 1000 nM for the first, < 100 nM for the second.

First: O=C(CCN(CCC(=O)NC[C@H](O)[C@@H](O)[C@H](O)[C@H](O)CO)C(=O)CCCCc1cc(Cl)c(CNC2(c3cnccc3-c3ccccc3OC3CC3)CC2)cc1Cl)NC[C@H](O)[C@@H](O)[C@H](O)[C@H](O)CO (stereo in doubt) [Compound I-170, 5-{2,5-dichloro-4-[({1-[4-(2-cyclopropoxyphenyl)pyridin-3-yl]cyclopropyl}amino)methyl]phenyl}-N,N-bis(2-{[(2S,3R,4R,5R)-2,3,4,5,6-pentahydroxyhexyl]carbamoyl}ethyl) pentanamide]
Second: O=C(CCCCc1ccc(Cl)c(CNC2(c3cnccc3-c3ccccc3OC3CC3)CC2)c1)NC[C@H](O)[C@@H](O)[C@H](O)[C@H](O)CO (stereo in doubt) [Compound I-233, 5-{4-chloro-3-[({1-[4-(2-cyclopropoxyphenyl)pyridin-3-yl]cyclopropyl}amino)methyl]phenyl}-N-[(2S,3R,4R,5R)-2,3,4,5,6-pentahydroxyhexyl]pentanamide]
The EC50 of the first is higher: 1260 to 10000 nM for the first, < 100 nM for the second.

CC(CCCCC(=O)NC[C@H](O)[C@@H](O)[C@H](O)[C@H](O)CO)c1ccc(Cl)c(CNC2(c3cnccc3-c3ccccc3OC3CC3)CC2)c1 (stereo partly drawn) [Compound I-317, 6-{4-chloro-3-[({1-[4-(2-cyclopropoxyphenyl)pyridin-3-yl]cyclopropyl}amino)methyl]phenyl}-N-[(2S,3R,4R,5R)-2,3,4,5,6-pentahydroxyhexyl]heptanamide] and O=C(CCCCNS(=O)(=O)c1ccc(Cl)c(COC2(c3cnccc3-c3ccccc3OC3CC3)CC2)c1)NC[C@H](O)[C@@H](O)[C@H](O)[C@H](O)CO [Compound I-433, 5-[4-chloro-3-({1-[4-(2-cyclopropoxyphenyl)pyridin-3-yl]cyclopropoxy}methyl)benzenesulfonamido]-N-[(2S,3R,4R,5R)-2,3,4,5,6-pentahydroxyhexyl]pentanamide] cannot be ordered by EC50: < 100 nM for the first, < 100 nM for the second.

First: Cc1ccc(SCCCCN(CCCS(C)(=O)=O)C(=O)[C@@H](O)[C@@H](O)[C@H](O)[C@@H](O)CO)cc1COC1(c2cnccc2-c2ccccc2OC2CC2)CC1 [Compound I-561, (2S,3S,4R,5S)-N-(4-{[3-({1-[4-(2-cyclopropoxyphenyl)pyridin-3-yl]cyclopropoxy}methyl)-4-methylphenyl]sulfanyl}butyl)-2,3,4,5,6-pentahydroxy-N-(3-methanesulfonylpropyl)hexanamide]
Second: CS(=O)(=O)NCCN(CCCSc1ccc(Cl)c(COC2(c3cnccc3-c3ccccc3OC3CC3)CC2)c1)C(=O)[C@@H](O)[C@@H](O)[C@H](O)[C@@H](O)CO [Compound I-593, (2S,3S,4R,5S)-N-(3-{[4-chloro-3-({1-[4-(2-cyclopropoxyphenyl)pyridin-3-yl]cyclopropoxy}methyl)phenyl]sulfanyl}propyl)-2,3,4,5,6-pentahydroxy-N-(2-methanesulfonamidoethyl) hexanamide]
The EC50 of the first is higher: 126 to 1000 nM for the first, < 100 nM for the second.

CN(CCCCNC(=O)N[C@@H](CO)[C@@H](O)[C@H](O)[C@H](O)CO)S(=O)(=O)c1cc(CNC2(c3cnccc3-c3ccccc3OC3CC3)CC2)c(Cl)cc1F [Compound I-475, 1-(4-{N-methyl4-chloro-5-[({1-[4-(2-cyclopropoxyphenyl)pyridin-3-yl]cyclopropyl}amino)methyl]-2-fluorobenzenesulfonamido}butyl)-3-[(2S,3R,4S,5R)-1,3,4,5,6-pentahydroxyhexan-2-yl]urea] and O=C(NCCCCCNS(=O)(=O)c1ccc(Cl)c(COC2(c3cnccc3-c3ccccc3OC3CC3)CC2)c1)N[C@@H](CO)[C@@H](O)[C@H](O)[C@H](O)CO (stereo in doubt) [Compound I-409, 1-{5-[4-chloro-3-({1-[4-(2-cyclopropoxyphenyl)pyridin-3-yl]cyclopropoxy}methyl)benzenesulfonamido]pentyl}-3-[(2S,3R,4S,5R)-1,3,4,5,6-pentahydroxyhexan-2-yl]urea] cannot be ordered by EC50: < 100 nM for the first, < 100 nM for the second.

First: CC(C)N(CCCCNC(=O)NC[C@H](O)[C@@H](O)[C@H](O)[C@H](O)CO)S(=O)(=O)c1ccc(Cl)c(COC2(c3cnccc3-c3ccccc3OC3CC3)CC2)c1 [Compound I-391, 3-[(2S,3R,4R,5R)-2,3,4,5,6-pentahydroxyhexyl]-1-[4-[N-(propan-2-yl)[4-chloro-3-([1-[4-(2-cyclopropoxyphenyl)pyridin-3-yl]cyclopropoxy]methyl)benzene]sulfonamido]butyl]urea]
Second: CCNC(=O)[C@@H](CCCCNS(=O)(=O)c1ccc(Cl)c(COC2(c3cnccc3-c3ccccc3OC3CC3)CC2)c1)NC(=O)NC[C@H](O)[C@@H](O)[C@H](O)[C@H](O)CO [Compound I-482, (2R)-6-[4-chloro-3-({1-[4-(2-cyclopropoxyphenyl)pyridin-3-yl]cyclopropoxy}methyl)benzenesulfonamido]-N-ethyl-2-({[(2S,3R,4R,5R)-2,3,4,5,6-pentahydroxyhexyl]carbamoyl}amino)hexanamide]
The EC50 of the first is lower: < 100 nM for the first, 126 to 1000 nM for the second.

COCCN(CCCCCNC(=O)N[C@@H](CO)[C@@H](O)[C@H](O)[C@H](O)CO)S(=O)(=O)c1ccc(Cl)c(COC2(c3cnccc3-c3ccccc3OC3CC3)CC2)c1 [Compound I-413, 1-{5-[N-(2-methoxyethyl)4-chloro-3-({1-[4-(2-cyclopropoxyphenyl)pyridin-3-yl]cyclopropoxy}methyl)benzenesulfonamido]pentyl}-3-[(2S,3R,4S,5R)-1,3,4,5,6-pentahydroxyhexan-2-yl]urea] and CN(C[C@H](O)[C@@H](O)[C@H](O)[C@H](O)CO)C(=O)CCCSc1ccc(Cl)c(COC2(c3cnccc3-c3ccccc3OC3CC3)CC2)c1 [Compound I-648, 4-{[4-chloro-3-({1-[4-(2-cyclopropoxyphenyl)pyridin-3-yl]cyclopropoxy}methyl)phenyl]sulfanyl}-N-methyl-N-[(2S,3R,4R,5R)-2,3,4,5,6-pentahydroxyhexyl]butanamide] cannot be ordered by EC50: < 100 nM for the first, < 100 nM for the second.
